Assay results from patent US20080051419A1, “AMINE DERIVATIVES USEFUL AS ANTICANCER AGENTS” (PFIZER INC., priority 2006, published 2008).
Read-outs that look alike come from different tables or passages of the source.

Target: T1, Akt1 (Homo sapiens, UniProt P31749, S473D)
T1 construct: The version of Akt used in these studies lacks the pleckstrin homology (PH) domain
Test: Akt1 kinase assay, fluorescence polarization (IMAP)
Type: biochemical
Procedure: The Akt1 kinase assay is based on the measurement of fluorescence polarization using IMAP technology (Molecular Devices Corporation #R8062). Two microliters of inhibitor compounds diluted to a concentration of 10 millimolar are added to column 2 of a polypropylene 96-well plate containing 98 microliters of 100% DMSO; the wells in columns 3-12 contain 60 microliters of 100% DMSO. The various test compounds are serially diluted 1:3 across the plate by pipetting 30 microliters of compounds into wells containing 60 microliters of 100% DMSO. Column 12 receives DMSO only and is used as a negative control for inhibition. The components of the wells are mixed and 15 microliters of each well are transferred to another 96-well plate already containing 60 microliters of reaction buffer (RB: 10 mM Tris-HCl, pH 7.5, 10 mM MgCl2, 0.1 mM EGTA, 0.01% Triton-X100 (Sigma #X-100), freshly added 1 mM DTT). After mixing, the […] reactions are assembled. First, five microliters of the above compound/reaction buffer mixture is transferred to the bottom of a 96-well black polystyrene reaction plate (Costar, #3694). Next, ten microliters of a solution containing 4 micromolar ATP and 40 nanomolar fluorescent-labeled Crosstide (Tamara-labeled […] peptide) are added. Then, 5 microliters (1.5 nanograms) of Akt protein in RB are added. The version of Akt used in these studies lacks the pleckstrin homology (PH) domain, and contains an aspartic acid residue in place of a serine residue in position 473 within the Akt1 hydrophobic motif. The Akt1 protein contains a polyhistidine tag at the amino terminus and is prephosphorylated on threonine at position 308 in order to activate latent kinase activity. Once the reaction components and inhibitors are assembled, the plates are gently tapped, covered with foil, and then incubated at ambient temperature for 30 minutes. IMAP beads (Molecular Devices) are then added (60 microliters of a 1:400 dilution of beads in RB). Plates are read on a Victor Plate Reader with the following settings: CW lamp filter: 544 nm, emission filter: 615 nm. Control values from wells lacking Akt protein are subtracted from the gross readings, and IC50 values are calculated using XLDA.

[1] = Table 1, concentration bins, read-out: Concentration Range at which exemplary compounds of formula I inhibit Akt kinase activity
[2] = Table 3, read-out: Avg Akt kinase, μM (50% inhibition)
[3] = Table 4, read-out: Avg Akt kinase, μM (50% inhibition)
[4] = average Akt kinase activity (IC50), read-out: Avg Akt kinase, μM (50% inhibition)

T1 sequence (P31749 118-480 S473D limits assumed, species assumed): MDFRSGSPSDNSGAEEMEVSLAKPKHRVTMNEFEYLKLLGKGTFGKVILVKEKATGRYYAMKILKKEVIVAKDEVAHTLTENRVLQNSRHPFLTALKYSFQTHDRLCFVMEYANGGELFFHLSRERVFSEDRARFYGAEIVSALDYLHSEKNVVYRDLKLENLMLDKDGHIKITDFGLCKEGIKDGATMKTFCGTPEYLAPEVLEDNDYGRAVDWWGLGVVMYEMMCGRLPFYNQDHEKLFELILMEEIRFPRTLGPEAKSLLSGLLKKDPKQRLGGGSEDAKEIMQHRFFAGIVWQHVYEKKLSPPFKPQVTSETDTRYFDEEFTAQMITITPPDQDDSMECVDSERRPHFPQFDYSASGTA

For `Cc1c[nH]c2ncnc(N3CC[C@](N)(CNC4=NC(=O)CC=C4)C3)c12` [Example 56, 6-({[(3S)-3-amino-1-(5-methyl-7H-pyrrolo[2,3-d]pyrimidin-4-yl)pyrrolidin-3-yl]methyl}amino)pyridin-2(3H)-one], the IC50 [1] was 0.0101 to 0.1 µM and the IC50 [2] was 0.014 µM.
With `Cc1c[nH]c2ncnc(N3CCC(N)(CNc4nccc(C(F)(F)F)n4)C3)c12` (centres unmarked) [Example 57, N-{[3-amino-1-(5-methyl-7H-pyrrolo[2,3-d]pyrimidin-4-yl)pyrrolidin-3-yl]methyl}-4-(trifluoromethyl)pyrimidin-2-amine] the IC50 [1] was 0.0101 to 0.1 µM and the IC50 [2] was 0.0287 µM.
`Cc1c[nH]c2ncnc(N3CCC(N)(COc4cccc(C(F)(F)F)c4)C3)c12` (centres unmarked) [Example 60, 1-(5-Methyl-7H-pyrrolo[2,3-d]pyrimidin-4-yl)-3-(3-trifluoromethyl-phenoxymethyl) pyrrolidin-3-ylamine] gave an IC50 [1] of 0.0101 to 0.1 µM and an IC50 [3] of 0.0504 µM.
Molecule `Cc1c[nH]c2ncnc(N3CC[C@](N)(COc4cccc(C(F)(F)F)c4)C3)c12` [Example 61, (3R)-1-(5-methyl-7H-pyrrolo[2,3-d]pyrimidin-4-yl)-3-{[3-(trifluoromethyl)-phenoxy]methyl}pyrrolidin-3-amine] has an IC50 [1] of 0.0101 to 0.1 µM and an IC50 [3] of 0.0335 µM.
`Cc1c[nH]c2ncnc(N3CC[C@@](N)(COc4cccc(C(F)(F)F)c4)C3)c12` [Example 62] was tested, and the IC50 [3] was 2.69 µM.
In the case of `N#Cc1c[nH]c2ncnc(N3CCC(N)(COc4cccc(C(F)(F)F)c4)C3)c12` (centres unmarked) [Example 63, 4-(3-amino-3-{[3-(trifluoromethyl)phenoxy]methyl}pyrrolidin-1-yl)-7H-pyrrolo[2,3-d]pyrimidine-5-carbonitrile], the IC50 [1] is reported as 0.0101 to 0.1 µM and the IC50 [3] is reported as 0.0641 µM.
For `CCc1c[nH]c2ncnc(N3CCC(N)(COc4cccc(C(F)(F)F)c4)C3)c12` (centres unmarked) [Example 64], the IC50 [1] was 0.0101 to 0.1 µM and the IC50 [3] was 0.0215 µM.
With `CCc1c[nH]c2ncnc(N3CCC(N)(COc4cccc(C)c4)C3)c12` (centres unmarked) [Example 65, 1-(5-ethyl-7H-pyrrolo[2,3-d]pyrimidin-4-yl)-3-[(3-methylphenoxy)methyl]pyrrolidin-3-amine] the IC50 [1] was 0.0101 to 0.1 µM and the IC50 [3] was 0.0948 µM.
Work on `Cc1c[nH]c2ncnc(N3CCC(N)(CSc4cccc(C(F)(F)F)c4)C3)c12` (centres unmarked) [Example 66, 1-(5-methyl-7H-pyrrolo[2,3-d]pyrimidin-4-yl)-3-((3-(trifluoromethyl)phenylthio)methyl) -pyrrolidin-3-amine] yielded an IC50 [1] of 0.101 to 10 µM and an IC50 [4] of 0.701 µM.
With `Cc1c[nH]c2ncnc(N3CCC(N)(CCc4cccc(C(F)(F)F)c4)C3)c12` (centres unmarked) [Example 67, 1-(5-methyl-7H-pyrrolo[2,3-d]pyrimidin-4-yl)-3-{2-[3-(trifluoromethyl) -phenyl]ethyl}pyrrolidin-3-amine] the IC50 [1] was 0.101 to 10 µM and the IC50 [4] was 0.126 µM.
`Cc1c[nH]c2ncnc(N3CCC(N)(CNC(=O)c4ccccc4)C3)c12` (centres unmarked) [Example 69, N-((3-amino-1-(5-methyl-7H-pyrrolo[2,3-d]pyrimidin-4-yl)pyrrolidin-3-yl)methyl)benzamide] was tested, and the IC50 [1] was 0.0101 to 0.1 µM and the IC50 [4] was 0.0623 µM.
Molecule `N[C@]1(CNC(=O)c2ccc(Cl)cc2)CCN(c2ncnc3[nH]cc(Cl)c23)C1` [Example 70, N—(((S)-3-amino-1-(5-chloro-7H-pyrrolo[2,3-d]pyrimidinechlorobenzamide (70)-4-yl)pyrrolidin-3-yl)methyl)-4] has an IC50 [1] of 0.00251 to 0.01 µM and an IC50 [4] of 0.00544 µM.
`Cc1c[nH]c2ncnc(N3CC[C@](N)(CNC(=O)c4ccccc4Cl)C3)c12` [Example 71, N—(((S)-3-amino-1-(5-methyl-7H-pyrrolo[2,3-d]pyrimidin-4-yl)pyrrolidin-3-yl)methyl)-2-chlorobenzamide] gave an IC50 [1] of 0.00251 to 0.01 µM and an IC50 [4] of 0.00797 µM.
With `CCc1c[nH]c2ncnc(N3CC[C@](N)(CNC(=O)c4ccc(F)cc4F)C3)c12` [Example 73, N-{[(3S)-3-amino-1-(5-ethyl-7H-pyrrolo[2,3-d]pyrimidin-4-yl)pyrrolidin-3-yl]methyl}-2,4-difluorobenzamide] the IC50 [1] was 0.00025 to 0.0025 µM and the IC50 [4] was 0.000269 µM.
Work on `Cc1c[nH]c2ncnc(N3CC[C@](N)(CNC(=O)c4ccc(Cl)cc4)C3)c12` [Example 74, (S)—N-((3-amino-1-(5-methyl-7H-pyrrolo[2,3-d]pyrimidin-4-yl)pyrrolidin-3-yl)methyl)-4-chlorobenzamide] yielded an IC50 [1] of 0.0101 to 0.1 µM and an IC50 [4] of 0.0114 µM.
`Cc1cccc(NC(=O)NCC2(N)CCN(c3ncnc4[nH]cc(C)c34)C2)c1C` (centres unmarked) [Example 75, 1-{[3-amino-1-(5-methyl-7H-pyrrolo[2,3-d]pyrimidin-4-yl)pyrrolidin-3-yl]methyl}-3-(2,3-dimethylphenyl)urea] gave an IC50 [1] of 0.101 to 10 µM and an IC50 [4] of 0.185 µM.
In the case of `COCCN(CC1(N)CCN(c2ncnc3[nH]cc(C)c23)C1)C(=O)Nc1ccccc1` (centres unmarked) [Example 76, 1-{[3-amino-1-(5-methyl-7H-pyrrolo[2,3-d]pyrimidin-4-yl)pyrrolidin-3-yl]methyl}-1-(2-methoxyethyl)-3-phenylurea], the IC50 [1] is reported as 0.101 to 10 µM and the IC50 [4] is reported as 0.523 µM.
Molecule `Cc1c[nH]c2ncnc(N3CCC(N)(CNS(=O)(=O)c4ccccc4)C3)c12` (centres unmarked) [Example 77, N-{[3-amino-1-(5-methyl-7H-pyrrolo[2,3-d]pyrimidin-4-yl)pyrrolidin-3-yl]methyl}benzenesulfonamide] has an IC50 [1] of 0.101 to 10 µM and an IC50 [4] of 0.177 µM.
For `N[C@]1(CNC(=O)c2ccc(F)cc2)CCN(c2ncnc3[nH]cc(Cl)c23)C1` [Example 78, N-{[(3S)-3-amino-1-(5-chloro-7H-pyrrolo[2,3-d]pyrimidin-4-yl)pyrrolidin-3-yl]methyl}-4-fluorobenzamide], the IC50 [1] was 0.00251 to 0.01 µM and the IC50 [4] was 0.00267 µM.
`Cc1cc(C(=O)NC[C@]2(N)CCN(c3ncnc4[nH]cc(Cl)c34)C2)no1` [Example 79] was tested, and the IC50 [1] was 0.00251 to 0.01 µM and the IC50 [4] was 0.00377 µM.
`N[C@]1(CNC(=O)c2ccccc2F)CCN(c2ncnc3[nH]cc(Cl)c23)C1` [Example 80, N-{[(3S)-3-amino-1-(5-chloro-7H-pyrrolo[2,3-d]pyrimidin-4-yl)pyrrolidin-3-yl]methyl}-2-fluorobenzamide] was tested, and the IC50 [1] was 0.00251 to 0.01 µM and the IC50 [4] was 0.00424 µM.
`N[C@]1(CNC(=O)c2cccc(F)c2F)CCN(c2ncnc3[nH]cc(Cl)c23)C1` [Example 81, N-{[(3S)-3-amino-1-(5-chloro-7H-pyrrolo[2,3-d]pyrimidin-4-yl)pyrrolidin-3-yl]methyl}-2,3-difluorobenzamide] gave an IC50 [1] of 0.00251 to 0.01 µM and an IC50 [4] of 0.00346 µM.
`N[C@]1(CNC(=O)c2ccc(F)cc2F)CCN(c2ncnc3[nH]cc(Cl)c23)C1` [Example 82, N-{[(3S)-3-amino-1-(5-chloro-7H-pyrrolo[2,3-d]pyrimidin-4-yl)pyrrolidin-3-yl]methyl}-2,4-difluorobenzamide] gave an IC50 [1] of 0.00025 to 0.0025 µM and an IC50 [4] of 0.00163 µM.
Molecule `N[C@]1(CNC(=O)c2ccc(Cl)c(F)c2)CCN(c2ncnc3[nH]cc(Cl)c23)C1` [Example 83, N-{[(3S)-3-amino-1-(5-chloro-7H-pyrrolo[2,3-d]pyrimidin-4-yl)pyrrolidin-3-yl]methyl}-4-chloro-3-fluorobenzamide] has an IC50 [1] of 0.00251 to 0.01 µM and an IC50 [4] of 0.00915 µM.
`N[C@]1(CNC(=O)c2ccc(Cl)cc2F)CCN(c2ncnc3[nH]cc(Cl)c23)C1` [Example 84, N-{[(3S)-3-amino-1-(5-chloro-7H-pyrrolo[2,3-d]pyrimidin-4-yl)pyrrolidin-3-yl]methyl}-4-chloro-2-fluorobenzamide] was tested, and the IC50 [1] was 0.0101 to 0.1 µM and the IC50 [4] was 0.0111 µM.
`N[C@]1(CNC(=O)c2ccccc2Cl)CCN(c2ncnc3[nH]cc(Cl)c23)C1` [Example 85, N-{[(3S)-3-amino-1-(5-chloro-7H-pyrrolo[2,3-d]pyrimidin-4-yl)pyrrolidin-3-yl]methyl}-2-chlorobenzamide] showed an IC50 [1] of 0.00251 to 0.01 µM and an IC50 [4] of 0.00643 µM.
In the case of `N#Cc1c[nH]c2ncnc(N3CC[C@](N)(CNC(=O)c4ccc(Cl)cc4)C3)c12` [Example 86], the IC50 [1] is reported as 0.0101 to 0.1 µM and the IC50 [4] is reported as 0.0175 µM.
In the case of `Cc1c[nH]c2ncnc(N3CC[C@](N)(CNC(=O)c4cccc(F)c4F)C3)c12` [Example 87], the IC50 [1] is reported as 0.00251 to 0.01 µM and the IC50 [4] is reported as 0.00758 µM.
Work on `CCc1c[nH]c2ncnc(N3CC[C@](N)(CNC(=O)c4ccc(Cl)cc4)C3)c12` [Example 88] yielded an IC50 [1] of 0.00025 to 0.0025 µM and an IC50 [4] of 0.0018 µM.
`CCc1c[nH]c2ncnc(N3CC[C@](N)(CNC(=O)c4cccc(F)c4F)C3)c12` [Example 89] was tested, and the IC50 [1] was 0.00251 to 0.01 µM and the IC50 [4] was 0.00278 µM.
For `N#Cc1c[nH]c2ncnc(N3CC[C@](N)(CNC(=O)c4cccc(F)c4F)C3)c12` [Example 90], the IC50 [1] was 0.0101 to 0.1 µM and the IC50 [4] was 0.0395 µM.
With `CCc1c[nH]c2ncnc(N3CC[C@@](N)(CNC(=O)c4cc(C)on4)C3)c12` [Example 91] the IC50 [1] was 0.00251 to 0.01 µM and the IC50 [4] was 0.00392 µM.
Molecule `CCc1c[nH]c2ncnc(N3CC[C@](N)(CNC(=O)c4ccc(F)cc4)C3)c12` [Example 93] has an IC50 [1] of 0.00025 to 0.0025 µM and an IC50 [4] of 0.00191 µM.
